The values below come from article PMC6037691, “Selenazolyl-hydrazones as Novel Selective MAO Inhibitors With Antiproliferative and Antioxidant Activities: Experimental and In-silico Studies” (Frontiers in Chemistry, 2018).

Series [1] in a line: Total antioxidant capacity (TAOC), modified phosphomolybdenum method. The following applies: concentration providing 0.500 of absorbance at 695 nm; mean ± SD, n = 3. The procedure:
(§1) Volume of 0.4 mL of sample solution (50–1,000 μM) was mixed with 1.6 mL of reagent solution [0.6 M H2SO4, 28 mM Na3PO4, and 4 mM (NH4)2MoO4] and resulting mixtures were incubated at 95°C for 90 min. The cooled reaction mixtures were then centrifuged for 10 min (3,000 rpm). The absorbance of the supernatant solution was measured, 1 h after centrifugation, at 695 nm against reagent solution as blank. An increased absorbance in reading in both assays indicated increased antioxidant power, expressed as EC50 values (the sample concentration giving absorbance of 0.500 from the graph of absorbance at 700 nm or 695 nm against compound concentration) (Prieto et al., [1999]).

A further series deals with T1, MAO B (Homo sapiens, UniProt P27338).
T1 construct: purchased Sigma-Aldrich
T1 sequence (P27338 1-520): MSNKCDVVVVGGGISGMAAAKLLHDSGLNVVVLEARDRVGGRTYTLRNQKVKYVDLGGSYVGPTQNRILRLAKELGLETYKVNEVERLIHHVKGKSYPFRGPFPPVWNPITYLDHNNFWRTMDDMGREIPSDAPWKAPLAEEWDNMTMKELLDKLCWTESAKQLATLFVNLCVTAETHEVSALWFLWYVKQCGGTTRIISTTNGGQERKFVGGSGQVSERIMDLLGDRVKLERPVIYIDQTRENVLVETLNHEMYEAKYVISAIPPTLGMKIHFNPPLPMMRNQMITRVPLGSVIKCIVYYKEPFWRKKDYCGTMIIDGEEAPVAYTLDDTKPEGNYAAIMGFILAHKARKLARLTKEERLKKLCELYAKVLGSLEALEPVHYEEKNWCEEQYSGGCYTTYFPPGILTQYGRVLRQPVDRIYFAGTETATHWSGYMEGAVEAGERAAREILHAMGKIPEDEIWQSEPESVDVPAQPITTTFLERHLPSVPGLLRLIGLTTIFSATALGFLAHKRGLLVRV
As to the kind of experiment: MAO B inhibition, discontinuous fluorimetric kynuramine assay. It is filed as biochemical. The following applies: 1 μM inhibitor; mean ± SD, n = 2; normalized to control. The procedure:
MAO A and B inhibition capacities were investigated using a discontinuous fluorimetric assay (Meiring et al., [2013]) as described previously by using human recombinant membrane-bound MAO purchased from Sigma-Aldrich (Affini et al., [2018]). Briefly, remained enzyme activity with inhibitor, either 1 μM (one-point) or concentrations ranging from 0.0001 to 10 μM, was assessed in the presence of kynuramine [2 × KM, KM = 20 μM (MAO A), KM = 30 μM (MAO B)] in potassium phosphate buffer (pH 7.4). Reactions were started by addition of enzyme and stopped by manual addition of sodium hydroxide (2 N) after 20 min. Enzyme activity was determined by detection of 4-hydroxyquinoline (λEx = 320 nm, λEm = 405 nm). Data were analyzed using GraphPad PRISM 6. For one-point measurements data were calculated as percentage of control and expressed as mean ± standard deviation (%). […] Data were obtained from two (one-point measurements) or at least three (IC50 values) independent experiments, each performed in duplicates.

The next series relates to WiDr (colon). Put plainly: Antiproliferative activity, WiDr. It is filed as cell-based, human. The settings on record: Homo sapiens. The procedure:
(§2) The in vitro antiproliferative activity of investigated compounds was evaluated against six human solid tumor cell lines: A549 (non-small cell lung), HBL-100, (breast), HeLa (cervix), SW1573 (non-small cell lung), as drug sensitive lines, T-47D (breast) and WiDr (colon) as drug resistant lines. These cell lines were a kind gift from Prof. G. J. Peters (VU Medical Center, Amsterdam, The Netherlands). For selectivity studies, the human fibroblasts BJ-hTert cell line was used, which was obtained from Dr. R. Freire (HUC, Tenerife, Canary Islands). Cells were kept in culture medium under standard conditions: RPMI 1640 medium, fetal bovine serum (5%), glutamine (2 mM), penicillin G (100 units/mL) and streptomycin (0.1 mg/mL). Antiproliferative tests were conducted as described earlier (Skehan et al., [1990]; Miranda et al., [2006]). Tested compounds were dissolved in DMSO at an initial concentration of 40 mM. DMSO was used as negative control (0.25% v/v). Antiproliferative activity of the compounds was expressed as GI50, which is the concentration of the compound that inhibits 50% of the culture growth.

The test system of another series is HeLa (cervix). Put plainly: Antiproliferative activity, HeLa. It is filed as cell-based, human. The settings on record: Homo sapiens. As for the experimental part:
as §2

In series [2] the test system is SW1573 (non-small cell lung). As to the kind of experiment: Antiproliferative activity, SW1573. It is filed as cell-based, human. As for the experimental part:
as §2

For series [3], the system named is human fibroblasts BJ-hTert cell line. As to the kind of experiment: Selectivity, non-transformed fibroblasts BJ-hTert. Format: cell-based. The following applies: Fibroblast; BJ-hTert normal human cell line; concentrations up to 100 μM. The procedure:
as §2

The test system of the next series is T-47D (breast). Put plainly: Antiproliferative activity, T-47D. The settings on record: Homo sapiens, T47D, T-47D. Format: cell-based, human. The procedure: as §2
A short description of series [4]: Oxygen radical absorbance capacity (ORAC) assay. The settings on record: Trolox equivalents; mean ± SD, n = 3. As for the experimental part:
A modification of original protocol was used (Ou et al., [2001]). Stock solutions of fluorescein substrate (5 μM) and free radical generator AAPH (0.5 M) were prepared in 75 mM potassium phosphate buffer (pH = 7.4). Volume of 100 μL of sample solutions or Trolox in DMSO (20 μM) were mixed with 1,485 μL of buffer and 15 μL of fluorescein solution. The 30 min reaction at 37°C was initiated by adding 250 μL of AAPH solution. Fluorescence conditions were as follows: excitation and emission wavelengths 485 and 511 nm, respectively, slits 2 nm. The relative sample ORAC value was expressed as Trolox equivalents (TE).

Series [5] in a line: Total reducing power (TRP), modified potassium ferricyanide reduction method. The following applies: concentration providing 0.500 of absorbance at 700 nm; mean ± SD, n = 3. The procedure: The mixture containing 0.5 mL of phosphate buffer (0.2 M, pH = 6.6), 0.5 mL of K3[Fe(CN)6] (1%; w/v) and 0.5 mL of the samples (100–1,500 μM) was incubated at 50°C for 20 min. A volume of 0.5 mL of trichloroacetic acid (TCA, 10%; w/v), 0.5 mL of Milli-Q water and 0.5 mL of FeCl3 (0.1%; w/v) was added, followed by intensive vortexing. The absorbance of the resulting mixture was measured after 60 min at 700 nm using phosphate buffer as blank (Oyaizu, [1986]).
as §1

By EC50 is commonly meant the midpoint of the concentration-response curve. High values mean lower potency in that assay, low ones higher potency in that assay. One may read the inhibition as the relative decrease from the control value, in per cent. A low value points to a weak effect. The GI50 is the concentration giving 50% growth inhibition. The term melting point denotes the temperature of the solid-liquid transition.

Bounds are passed on as bounds.

Take `COc1ccc(-c2c[se]c(NN=Cc3cccc([N+](=O)[O-])c3)n2)cc1` [Compound 3-OMe, 4-(4-methoxyphenyl)-2-(2-(3-nitrobenzylidene)hydrazinyl)-1,3-selenazole]: the melting point was 201 to 203 °C. In series [1], this compound yielded an EC50 of 632 ± 50 µM. At MAO B, this compound registered an inhibition at 1 µM of 23.8 ± 7.7%. Moreover, the GI50 in the series with WiDr (colon) was above 100 µM. In the series on HeLa (cervix), this compound came in with a GI50 of 26 ± 2 µM. Further, in series [2], the “antiproliferative activity class SW1573” value is on record as “good activity (good activity (GI50 = 1–10 μM))”. Moreover, it took 8.4 ± 0.2 µM to inhibit growth in [2] (Homo sapiens) by half (GI50). The compound also showed a GI50 in series [3] above 100 µM. This compound also returned a GI50 with T-47D (breast) of 67 ± 2.2 µM. For the same compound, the ORAC in series [4] turned out to be 0.86 ± 0.07 TE. In addition, in [5], a half-maximal effect (EC50) was put at 488 ± 46 µM.
